Test results reported in article PMC12113347, “Compound 3d Attenuates Metabolic Dysfunction-Associated Steatohepatitis via Peroxisome Proliferator-Activated Receptor Pathway Activation and Inhibition of Inflammatory and Apoptotic Signaling” (Metabolites, 2025).

Key:
L02 cells [1] = test: Effect of 3d on L02 cell proliferation/survival (Figure 1C); assay type: cell-based, human; conditions: 3d alone
L02 cells [2] = test: FFA-induced lipid accumulation model in L02 cells (TG and ALT kits, Oil Red O); assay type: cell-based, human; conditions: 0.9 mM FFA
Description: Free fatty acids (FFAs, OA:PA = 2:1) were used to induce the lipid model in L02 cells (Guangzhou Huatuo Biological Technology Co., Ltd., Guangzhou, China). The L02 cells (1 × 10^5 cells/mL) were inoculated in 12-well plates. After 24 h, the cells were starved for 12 h and then treated with DMSO or FFAs for 24 h. Subsequently, the cells were exposed to fenofibric acid (100 μM) or 3d (10, 20, 40 μM) for another 24 h.
The cells were collected and lysed using cell lysis solution; the supernatants were subjected to triglycerides (TGs) and alanine aminotransferase (ALT) kit assays. Moreover, following the completion of the treatment, the cells were fixed with 4% paraformaldehyde and stained with an Oil Red O, with the objective of observing the morphology under an inverted microscope.

gut microbiota = test: Gut microbiota composition by 16S rRNA sequencing in MASH mice; assay type: in vivo
Description: Proteome sequencing of liver tissue samples was performed according to the specific requirements of the protocol by Beijing Qinglian Baiao Biotechnology Co., Ltd. (Beijing, China). Mouse fecal samples were collected and frozen in liquid nitrogen and stored at −80 °C.
Total DNA was extracted by QIAamp DNA Stool Mini Kit, homogenized by lysis buffer, digested by proteinase, and purified by a centrifugal column and then passed through NanoDrop and agarose gel electrophoresis for quality control. PCR amplification was performed with primers specific to the V3-V4 region of the bacterial 16S rRNA gene (341F: 5′-CCTAYGGGRBGCASCAG-3′; 806R: 5′-[…]-3′), and the reaction system consisted of 2 × Taq PCR Master Mix, and the program was 95 °C pre-denaturation for […] (95 °C for 30 s, 55 °C for 30 s, 72 °C for 45 s) and extension at 72 °C for 10 min. After purification, bipartite sequencing was performed using the Illumina MiSeq PE300 platform. After QIIME2 quality control, the raw data were clustered into OTUs with 97% similarity, and the species were annotated based on the Silva database to analyze the Alpha/Beta diversity and differential flora.

L02 cells [3] = test: Apoptosis test (Annexin V/PI, flow cytometry) in FFA-treated L02 cells; assay type: cell-based, human; conditions: after FFA treatment
Description: L02 cells were inoculated in 6-well plates at 1 × 10^5 cells/mL, and after completing the lipid-accumulating cell modeling treatment according to the method described in 2.1, the cells were collected and washed with 1× PBS buffer.
Apoptosis test: Binding Buffer was used to resuspend the modeling-treated cells, cells were stained with Annexin V/PI, and apoptosis was determined using flow cytometry.

RAW264.7 cells = test: LPS-induced RAW264.7 cell inflammation model (TNF-α, NO, IL-6 in supernatant); assay type: cell-based
Description: RAW264.7 cells were bought from Guangzhou Huatuo Biological Technology Co., Ltd. (Guangzhou, China). RAW264.7 cells (1 × 10^5 cells/mL) were inoculated in 24-well plates. After 24 h, LPS (1 μg/mL) was added to induce cell inflammation. Subsequently, curcumin (100 μM), fenofibric acid (FA, 100 μM), or 3d (10, 20, 40 80 μM) was added for 24 h. The cell supernatant was collected for analysis of inflammatory factors, including nitric oxide (NO), interleukin-6 (IL-6), and tumor necrosis factor (TNF-α).

[4] = Pharmacokinetics of 3d in male SD rats, gavage; assay type: in vivo; conditions: for MRT last: read-out: MRT(0-t) (converted)
Description: (§1) The pharmacokinetics of 3d in vivo were evaluated using male SD rats. Following a 12 h fast, the rats were administered 3d (30 mg/kg) via gavage or tail vein injection, respectively, and blood samples were collected within 24 h for analysis of 3d blood concentration via HPLC. The PK parameters were calculated using the DAS 3.0, and oral bioavailability (F) was obtained by the following formula.F = AUCpo × Di.v/AUCi.v × Dpo × 100%(1)

[5] = Pharmacokinetics of 3d in male SD rats, tail vein injection; assay type: in vivo; conditions: 30 mg/kg; for half-life: SD, iv
Description: as §1

PPAR-related proteins = test: Western blotting of PPAR-related proteins in FFA-stimulated L02 cells; assay type: cell-based, human; conditions: Figure 6A
Description: Proteins were extracted using RIPA lysate and a BCA kit for protein concentration, separated by SDS-PAGE gel electrophoresis, and transferred to PVDF membranes. The membranes were sealed with 5% skimmed milk and incubated at 4 °C overnight with primary antibodies, followed by co-incubation with the corresponding secondary antibodies. The protein bands were imaged using an infrared laser imager and quantitatively analyzed by ImageJ software. The antibodies used for Western blot were Acox1 (Abcam, ab184032), Acaa1 (Abcam, ab154091), EHHADH (Abcam, ab123490), PPARγ (Abcam, ab272718), PPARα (Abcam, ab314112), PPARδ (Abcam, ab178866), P38 (Abcam, ab31828), p-P38 (Abcam, ab195049), Bcl-2 (Abcam, ab182858), Caspase8 (Abcam, ab25901), anti-rabbit IgG (CST, 7074 S), and α-tubulin (Abcam, ab7291).

[6] = LPSs-induced, RAW264.7 macrophages, p < 0.01
[7] = male, SD, rat, blood, po, 30 mg/kg, rats, administered orally
[8] = male, rat, blood, SD rats, intravenous

With `CNc1ccc(C(=O)/C=C/c2cc(C)c(OC(C)(C)C(=O)OC(C)(C)C)c(C)c2)cc1` [3d] the “cell survival of L02 cells” value (L02 cells [1]) was “significantly increased cell survival”, the “intracellular lipid accumulation (Oil Red O morphology)” value (L02 cells [2]) was “diminished intracellular lipid accumulation” and the ALT activity (L02 cells [2]; 3d 10, 20, 40 μM, 24 h) was “notable reduction”. The “intracellular TG levels” value (L02 cells [2]; 3d 10, 20, 40 μM, 24 h) was “notable reduction”, the Bifidobacterium rise (gut microbiota) was 1.9 fold and the Lactobacillus increase (gut microbiota) was 2.7 fold. The Proteobacteria decrease (gut microbiota; p < 0.05) was 68%, the “abundance of Firmicutes and Actinobacteria” value (gut microbiota; phylum level) was “significantly increased” and the “abundance of Proteobacteria and Deferribacteres” value (gut microbiota; phylum level) was “significantly reduced and returned to normal levels”. For the same compound, the Shannon index (gut microbiota; α-diversity) was “decreased”, the Simpson index (gut microbiota; α-diversity) was “increased” and the “community richness, Chao1 and ACE indices” value (gut microbiota; α-diversity) was “no significant effect”. The apoptosis (L02 cells [3]) was “decrease to near-normal levels”, the “levels of each inflammatory factor (TNF-α, NO, IL-6)” value (RAW264.7 cells; LPS 1 μg/mL, 3d 10, 20, 40, 80 μM, 24 h) was “significantly reduced” and the IL-6 reduction (RAW264.7 cells; [6]) was 48%. For the same compound, the NO decrease (RAW264.7 cells; [6]) was 51%, the TNF-α reduction (RAW264.7 cells; [6]) was 63% and the “AUC(0-t)” value ([4]; SD rats, gavage, 30 mg/kg) was 30,236 ng/L*min. The “AUC(0-∞)” value ([4]; SD rats, gavage, 30 mg/kg) was 34,864 ng/L*min, the “AUMC(0-t)” value ([4]; SD rats, gavage, 30 mg/kg) was 7,351,242 and the “AUMC(0-∞)” value ([4]; SD rats, gavage, 30 mg/kg) was 12,023,223. It also gave a Cmax ([4]; SD rats, gavage, 30 mg/kg) of 0.113 ng/mL, a Cz ([4]; SD rats, gavage, 30 mg/kg) of 15 ng/L and a Tmax ([4]; SD rats, gavage, 30 mg/kg) of 2 h. The “VRT(0-t)” value ([4]; SD rats, gavage, 30 mg/kg) was 31,533 min^2, the “VRT(0-∞)” value ([4]; SD rats, gavage, 30 mg/kg) was 107,286 min^2 and the Zeta ([4]; SD rats, gavage, 30 mg/kg) was 0.003 min⁻¹. It also gave a Cmax ([4]; male, SD, rat, blood, po, 30 mg/kg, SD rats, gavage, 30 mg/kg, read-out: Cmax) of 0.113 ng/mL, an MRT last ([4]; male, SD, rat, blood, po, 30 mg/kg, SD rats, gavage, 30 mg/kg) of 4.05 h and a half-life [4, 7] of 3.4 h. For the same compound, the MRT last [4, 7] was 4 h, the Tmax ([4]; male, SD, rat, blood, po, 30 mg/kg, rats, administered orally, read-out: time of peak concentration) was 2 h and the bioavailability ([4]; male, SD, rat, blood, po, rats, 30 mg/kg gavage vs tail vein injection, read-out: oral bioavailability (F)) was 27.9%. For the same compound, the MRT inf ([4]; male, rat, blood, po, SD rats, gavage, 30 mg/kg, read-out: MRT(0-∞) (converted)) was 5.73 h, the “AUC(0-t)” value ([5]; SD rats, intravenous) was 108,480 ng/L*min and the “AUC(0-∞)” value ([5]; SD rats, intravenous) was 136,923 ng/L*min. The “AUMC(0-t)” value ([5]; SD rats, intravenous) was 11,816,712, the “AUMC(0-∞)” value ([5]; SD rats, intravenous) was 29,781,860 and the Cz ([5]; SD rats, intravenous) was 107 ng/L. The “VRT(0-t)” value ([5]; SD rats, intravenous) was 10,194 min^2, the “VRT(0-∞)” value ([5]; SD rats, intravenous) was 66,630 min^2 and the Zeta ([5]; SD rats, intravenous) was 0.004 min⁻¹. For the same compound, the half-life ([5]; male, rat, blood, SD rats, intravenous, read-out: T1/2) was 3.03 h, the half-life ([5]; male, rat, blood, rats, intravenous administration, read-out: half-life (converted)) was 3 h and the Cmax [5, 8] was 1.09 ng/mL. The Tmax [5, 8] was 5 min, the MRT last ([5]; male, rat, blood, SD rats, intravenous, read-out: MRT(0-t) (converted)) was 1.8 h and the MRT inf ([5]; male, rat, blood, SD rats, intravenous, read-out: MRT(0-∞) (converted)) was 3.62 h. For the same compound, the “AUC intravenous relative to oral administration” value ([5]; rats) was “four times greater” and the “PPAR-related proteins in L02 cells” value (PPAR-related proteins) was “significantly increased”.
